According to PMC7770674, “A Combinative Assembly Strategy Inspired Reversibly Borate-Bridged Polymeric Micelles for Lesion-Specific Rapid Release of Anti-Coccidial Drugs” (Nano-Micro Letters, 2020):

Test system: Caco2 cells
Experiment: In vitro cytotoxicity MTT assay
Format: cell-based, human
Conditions: DIC concentration 100 μg mL^−1, 48 h
Experimental: For cell studies, human colon cancer cell line Caco2 cells (Shanghai Institute of Biochemistry and Cell Biology, Chinese Academy of Sciences, Shanghai, China) were cultured in DMEM medium supplemented with 10% FBS, 100 U mL^−1 penicillin, and 100 μg mL^−1 streptomycin at 37 °C under an atmosphere of 5% CO2 and 95% relative humidity. In vitro cytotoxicity of free DIC, blank micelles and DIC-encapsulated micelles were evaluated by 3-(4,5-dimethylthiazol-2-yl)-2,5-diphenyltetrazolium bromide (MTT) assay. Caco2 cells were planted in 96-well plate at a density of 5 × 10^3 cells per well and cultured for another 24 h. The cells were treated with free DIC, PCS/DIC micelles, PCS + DIC mixture, SPCS/DIC micelles and SPCS + DIC mixture at a range of DIC concentrations (0.001–100 μg mL^−1), or PCS and SPCS blank micelles at equivalent concentrations of corresponding drug-loaded micelles for 48 h. Thereafter, 20 µL of MTT solution (5 mg mL^−1) was added to each well and incubated with cells for another 4 h at 37 °C. The culture medium was then removed, and the formed dark blue formazan crystals were dissolved with 100 µL of DMSO. The absorbance at 570 nm was recorded using a microplate reader (EL800, BIO-TEK Instruments Inc., USA). Untreated cells were used as control, and cell viability (%) was calculated according to Eq. (3).3 Cellviability(%)=Atest/Acontrol×100%

SMILES: N#CC(c1ccc(Cl)cc1)c1c(Cl)cc(-n2ncc(=O)[nH]c2=O)cc1Cl (stereo not shown) [Free DIC, Diclazuril]
- cells survived: less than 10%
